This note sets out measurements from ChEMBL document CHEMBL1201862, “PubChem BioAssay data set” (2004).

Calls of active or inactive are those of the source. Some results are limits rather than exact numbers.

The target of one assay is T1, Protein skinhead-1 (Caenorhabditis elegans, UniProt P34707).
T1 sequence (P34707 whole entry): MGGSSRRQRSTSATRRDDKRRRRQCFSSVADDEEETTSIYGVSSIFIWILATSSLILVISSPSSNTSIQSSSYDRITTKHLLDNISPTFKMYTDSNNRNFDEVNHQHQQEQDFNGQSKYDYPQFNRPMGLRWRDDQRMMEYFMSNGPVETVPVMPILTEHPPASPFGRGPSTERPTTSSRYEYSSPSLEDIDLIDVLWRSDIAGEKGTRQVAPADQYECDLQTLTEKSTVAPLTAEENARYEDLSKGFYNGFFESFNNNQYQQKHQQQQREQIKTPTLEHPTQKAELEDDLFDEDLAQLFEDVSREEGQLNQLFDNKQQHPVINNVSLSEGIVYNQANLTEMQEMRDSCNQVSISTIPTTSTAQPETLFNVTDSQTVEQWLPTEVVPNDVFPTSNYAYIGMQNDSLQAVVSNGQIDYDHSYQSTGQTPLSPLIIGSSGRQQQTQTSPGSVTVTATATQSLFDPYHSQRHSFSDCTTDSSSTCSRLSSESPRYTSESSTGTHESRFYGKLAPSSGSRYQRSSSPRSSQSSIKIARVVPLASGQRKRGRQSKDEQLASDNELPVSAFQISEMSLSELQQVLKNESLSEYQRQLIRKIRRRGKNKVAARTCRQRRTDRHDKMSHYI
Format: functional.

In a further assay the target is Cytochrome P450 2D6 (Homo sapiens, UniProt P10635).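 Note: CYP2D6 member of a cytochrome P450 panel assay.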
A short description of assay [1]: blockers of HIV-1 envelope-mediated cell-cell fusion – cherry-pick, dose response (AID 652057). Format: functional, cell-based.
The nature of assay [2]: HIV-1 AD8 envelope cell-cell fusion blockers – cherry-pick, dose response (AID 652062).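 Note: luciferase signal from cell-cell fusion driven by HIV-1 clade B AD8 Env; potency is for inhibitors of fusion seen as a drop in luminescence.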 The class given is functional, cell-based.
Assay [3] in a line: viability of PTEN-deleted HCT116 cells – cell-based, HCT116 PTEN knockout, dose response (AID 1047).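 Note: HCT116 colon tumor cells with PTEN knocked out; cells exposed to compound for 60 hours before readout; potency for loss of cell viability measured by luminescence.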 Format: functional.
A short description of assay [4]: viability of HCT116 lacking mutant beta-catenin – cell-based, human colon tumor, dose response (AID 1045).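 Note: HCT116 colon tumor cells with beta catenin knocked out; cells exposed to compound for 60 hours.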 Format: functional.
The nature of assay [5]: Luminescence Cell-Based Dose Retest to Confirm Inhibitors of Cancer Stem Cells. [Related pubchem assays (depositor defined):AID2717, AID2721]. Format: functional. As to conditions: Homo sapiens.
The target of assay [6] is T2, Corticotropin-releasing factor receptor 2/Corticotropin-releasing factor-binding protein (Homo sapiens, UniProt P24387+Q13324).
T2 sequence (Q13324 whole entry): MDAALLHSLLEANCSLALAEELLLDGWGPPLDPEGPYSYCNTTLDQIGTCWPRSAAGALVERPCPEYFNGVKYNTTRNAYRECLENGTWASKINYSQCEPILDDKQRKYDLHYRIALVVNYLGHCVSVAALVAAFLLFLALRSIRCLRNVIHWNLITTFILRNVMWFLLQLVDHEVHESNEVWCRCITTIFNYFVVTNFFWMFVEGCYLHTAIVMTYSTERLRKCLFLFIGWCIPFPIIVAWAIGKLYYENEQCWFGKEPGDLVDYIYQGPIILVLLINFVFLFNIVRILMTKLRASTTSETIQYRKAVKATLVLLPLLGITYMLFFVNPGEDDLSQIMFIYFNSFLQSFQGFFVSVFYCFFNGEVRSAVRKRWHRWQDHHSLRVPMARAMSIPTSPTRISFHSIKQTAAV
T2 sequence (P24387 whole entry): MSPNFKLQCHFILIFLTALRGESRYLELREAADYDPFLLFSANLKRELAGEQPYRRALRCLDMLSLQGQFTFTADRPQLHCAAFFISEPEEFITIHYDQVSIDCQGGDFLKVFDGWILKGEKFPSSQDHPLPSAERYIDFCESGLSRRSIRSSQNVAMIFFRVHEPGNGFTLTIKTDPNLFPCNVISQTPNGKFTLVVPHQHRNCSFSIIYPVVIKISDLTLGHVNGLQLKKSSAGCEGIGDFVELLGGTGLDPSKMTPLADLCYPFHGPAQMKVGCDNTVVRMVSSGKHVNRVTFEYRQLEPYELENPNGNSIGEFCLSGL
The assay is described as follows: Dose Response confirmation of uHTS hits for small molecule antagonists of the CRF-binding protein and CRF-R2 receptor complex. To be noted: read-out: IC50_Mean. The class given is functional.

In assay [7] the target is T2, Corticotropin-releasing factor receptor 2/Corticotropin-releasing factor-binding protein. Kind of assay: activators of CRF receptor 2 with binding protein – uHTS hits, confirmation (AID 602473). Format: functional. As to conditions: read-out: EC50_Mean.
The test system of assay [8] is Streptococcus sp. 'group A'. Kind of assay: Streptococcus pyogenes SK(-)GAS viability under kanamycin – luminescence, BacTiterGlo, confirmation, counter-screen for streptokinase expression inhibitor project, dose response (AID 1900). The class given is functional, organism-based. A general note: A counterscreen serves to expose hits that act by an unwanted route or on another target.

For a further assay, the target named is T3, Streptokinase A (Streptococcus pyogenes serotype M1, UniProt P10520).
T3 sequence (P10520 whole entry): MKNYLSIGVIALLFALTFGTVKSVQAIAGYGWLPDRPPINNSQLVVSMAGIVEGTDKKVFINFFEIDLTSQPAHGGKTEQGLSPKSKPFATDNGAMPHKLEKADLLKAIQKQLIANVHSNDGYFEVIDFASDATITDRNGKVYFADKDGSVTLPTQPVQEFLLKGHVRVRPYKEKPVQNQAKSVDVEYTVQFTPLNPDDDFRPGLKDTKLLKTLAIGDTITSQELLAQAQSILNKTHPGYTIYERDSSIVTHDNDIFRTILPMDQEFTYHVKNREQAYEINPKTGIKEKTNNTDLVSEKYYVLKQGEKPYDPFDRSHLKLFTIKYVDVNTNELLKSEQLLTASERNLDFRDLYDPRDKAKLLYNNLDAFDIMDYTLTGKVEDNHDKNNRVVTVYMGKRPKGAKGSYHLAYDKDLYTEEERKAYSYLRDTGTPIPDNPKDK
The assay is described as follows: viability-normalized secreted streptokinase activity reduction – plasminogen activation absorbance, OD405, dose response (AID 1914).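 Note: secreted streptokinase activity via plasminogen activation per viability signal from cell pellet.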 The class given is functional, Streptococcus pyogenes M1 GAS.

For a further assay, the system named is Streptococcus. Kind of assay: GAS UMAA2166 growth inhibition – luminescence, BacTiterGlo, counter-screen for streptokinase expression inhibitor project, dose response (AID 1915).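 Note: potency for reduction of bacterial viability or growth.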 Format: functional, organism-based.
Assay [9] in a line: Trypanosoma cruzi growth suppression in host cells – NIH3T3 host cells, beta-gal luminescence, confirmation (AID 2044).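 Note: intracellular parasites grown in NIH/3T3 mouse fibroblasts as host cells; luminescent beta-galactosidase reporter signal from transgenic T. cruzi replicating inside host cells; inhibitors lower the luminescence signal.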 Format: functional, cell-based.
Assay [10] is described as follows: NIH3T3 cell viability loss – ATP luminescence, mouse fibroblasts, counter-screen, dose response (AID 2010).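 Note: cells exposed to compound for about 90 hours before reading.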 The class given is functional, cell-based.

Sequence of Cytochrome P450 2D6 (P10635 whole entry, the tested form may be a part): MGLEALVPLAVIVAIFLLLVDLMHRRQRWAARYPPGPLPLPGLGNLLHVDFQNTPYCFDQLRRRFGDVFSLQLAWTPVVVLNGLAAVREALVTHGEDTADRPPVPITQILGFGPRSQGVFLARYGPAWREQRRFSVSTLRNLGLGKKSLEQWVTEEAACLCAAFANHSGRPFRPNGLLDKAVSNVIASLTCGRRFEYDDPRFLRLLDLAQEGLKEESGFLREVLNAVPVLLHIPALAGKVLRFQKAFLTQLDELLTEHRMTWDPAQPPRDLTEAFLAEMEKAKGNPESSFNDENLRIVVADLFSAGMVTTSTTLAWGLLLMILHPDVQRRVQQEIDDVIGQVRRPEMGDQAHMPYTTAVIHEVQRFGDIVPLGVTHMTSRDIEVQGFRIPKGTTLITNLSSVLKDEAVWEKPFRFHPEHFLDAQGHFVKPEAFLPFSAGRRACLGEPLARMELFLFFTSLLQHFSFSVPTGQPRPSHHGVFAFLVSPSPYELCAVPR

For the compound `FC(F)(F)c1cccc(-c2nc(-c3ccncc3)no2)c1`, the IC50 at Protein skinhead-1 is > 100 µM (inactive). Still for that read-out and setting: under `Cc1cccc2cc(C#N)c(N3CCCC3)nc12` stands > 100 µM (inactive). As a reminder, the AC50 is the concentration giving half of the maximal activity seen. With `COc1cnc(SCc2ccc(Cl)cc2)nc1Cl`, the AC50 at Cytochrome P450 2D6 is 17.8 µM (inconclusive).

Take `CN1CCC(N(C)CC(=O)Nc2ccccc2N2CCOCC2)CC1`: the IC50 on Protein skinhead-1 was > 100 µM (inactive). As for `CCNC(=O)C[C@H]1CC[C@@H]2[C@@H](COc3ccc(NC(=O)Nc4cccc(OC)c4)cc3C(=O)N2C)O1`, the concentration at half-maximal activity (AC50) in [1] is 37.7 µM (active); in [2], 50.2 µM (active).

With `COCCN1C(=O)CC(NNC(=O)c2ccc(S(=O)(=O)N3CCCC3)cc2)C1=O` (configuration not stated), the IC50 on Protein skinhead-1 is > 100 µM (inactive). Regarding `COc1ccc(-c2c3c(nc4sc5c(Cl)nc(C)nc5c24)CCC3)cc1`, the EC50 in [3] is 4.46 µM (active); in [4] it was 1.59 µM (active). Taken in the same sequence, the figures for `CCOC(=O)c1c(NC(=O)c2cc3n(n2)C(C(F)(F)F)CC(c2cccs2)N3)sc(C)c1C` (configuration not stated) were 2.45 µM (active) and 2.59 µM (active). The corresponding values for `O=C(Nc1nc2ccc(Cl)cc2s1)c1ccc(N2CCCCC2)c([N+](=O)[O-])c1` are 12.2 µM (active) and 13.5 µM (active). For the compound `COc1ccc(Cl)cc1C(=O)Nc1ccccc1N1CCCCC1`, the IC50 on Protein skinhead-1 is > 100 µM (inactive). With `CC(C)CC1CC(=O)OC1(C)C(=O)CSc1nc2ccccc2s1` (configuration not stated), the AC50 at Cytochrome P450 2D6 is 3.55 µM (inconclusive). With `COc1cc(C[C@H](C)[C@H](C)Cc2ccc3c(c2)OCO3)ccc1O` [AUSTROBAILIGNAN 6], in assay [5], the AC50 is 5.23 µM (active). Also, the IC50 in [6] was > 47.1 µM (inactive). In addition, the EC50 in [7] was > 53 µM (inactive). In the case of `C[C@H]1CN([C@@H](C)CO)C(=O)c2ccccc2-c2ccccc2CO[C@H]1CN(C)Cc1cccc(F)c1`, the results for the AC50 in assay [1] and in [2] were < 0.26 µM (active) and 0.416 µM (active), respectively. With `Cc1ccc(-c2nc(CSCC(=O)N3CCN(c4ccccn4)CC3)c(C)o2)cc1`, the EC50 in assay [3] was 35 µM (active); in [4], 17.1 µM (active).

Regarding `CN(/N=C/c1ccc(Cl)cc1Cl)c1ncc(Cl)cc1C(F)(F)F`, the EC50 in [8] was 16.9 µM (active); on Streptokinase A it was 21.2 µM (active); in the assay with Streptococcus, > 150 µM (not active); in assay [7] it was > 53 µM (inactive). The IC50 in [6] was > 47.1 µM (inactive).

Consider `O=C(c1ccc(COc2ccc(F)cc2)o1)n1cccn1`, for which the AC50 on Cytochrome P450 2D6 is 0.00562 µM (inconclusive). Take `COc1ccc(CN2CCCC(C(=O)c3cccc(Cl)c3)C2)cc1` (configuration not stated): the IC50 on Protein skinhead-1 is > 100 µM (inactive). Turning to `FC(F)(F)C1=CC(c2ccc(Cl)cc2)=NCCN1`, at Protein skinhead-1, the IC50 is > 100 µM (inactive). Consider `CCc1cc2cc(C)cc(C)c2nc1SCC(=O)N1CCN(C(=O)c2ccco2)CC1`, for which the AC50 in [5] was 12.8 µM (active). In [6], the IC50 was > 47.1 µM (inactive). Moreover, in [7], the EC50 is > 53 µM (inactive).

Regarding `Cc1ccc(CCNC(=O)c2coc3nc4ccccc4nc23)cc1`, the IC50 on Protein skinhead-1 is > 100 µM (inactive).

Take `CCOc1ccc(NC(=O)C2CCCN(S(=O)(=O)c3c(C)nn(C)c3C)C2)cc1` (configuration not stated): the IC50 on Protein skinhead-1 is > 100 µM (inactive). Still for that read-out and setting: under `CCSc1nnc(-c2ccc(Cl)cc2Cl)o1` stands 29.7 µM (active). Consider `Cc1cccc(N(CC(O)CON=C2c3ccccc3-c3ccccc32)S(C)(=O)=O)c1` (configuration not stated), for which the EC50 in [9] is 3.22 µM (active); in [3], 28.8 µM (active); in assay [10] it was > 60 µM (not active); in assay [4], 29.6 µM (active).

As for `Cc1ccc(C(=O)/C=C/c2ccc(Br)cc2)o1`, the results for the EC50 in assay [3] and in assay [4] were 8.44 µM (active) and 6.62 µM (active), respectively.
